≈ marks a conversion by molar mass, not a printed value.
Key:
[1] = system: sensitive strain MG1655 [敏感菌株MG1655]; experiment: Minimum inhibitory concentration, sensitive strain MG1655; assay type: cell-based; conditions: Escherichia coli, serial dilution, 96-well plate, broth
[2] = system: resistant strain EY1 [抗性菌EY1]; experiment: Minimum inhibitory concentration, resistant strain EY1; assay type: cell-based; conditions: serial dilution, 96-well plate, broth
[3] = system: MG1655; experiment: Uptake of Texas Red-labelled gentamicin (flow cytometry); assay type: cell-based, Escherichia coli; conditions: log and stationary phase, 0, 1, 5, 10 mM tryptophan
[4] = system: MG1655; experiment: Intracellular reactive oxygen species (H2DCFDA); assay type: cell-based, Escherichia coli; conditions: log and stationary phase; 60 mg/L gentamicin alone or with 5 mM tryptophan, 1 h
[5] = system: Escherichia coli MG1655 [大肠杆菌MG1655]; experiment: Bactericidal effect of antibiotic with or without tryptophan (viable count); assay type: cell-based
[6] = system: MG1655; experiment: Rate of generation of drug-tolerant bacteria (viable count); assay type: cell-based, Escherichia coli; conditions: cultures of 3 to 9 h; gentamicin 60 mg/L and kanamycin 40 mg/L 5 h, then various tryptophan concentrations 30 min; concentration-dependent; printed as up to (可达)
[7] = system: MG1655 drug-tolerant bacteria [耐药菌]; experiment: Killing of drug-tolerant bacteria (viable count); assay type: cell-based, Escherichia coli; conditions: after gentamicin 60 mg/L or kanamycin 40 mg/L 5 h; then antibiotic + 5 mM tryptophan 5 h; printed as can reach (可以达到)

Compound `NC[C@H]1O[C@H](O[C@H]2[C@H](O)[C@@H](O[C@H]3O[C@H](CO)[C@@H](O)[C@H](N)[C@H]3O)[C@H](N)C[C@@H]2N)[C@H](O)[C@@H](O)[C@@H]1O` [卡那霉素] has an MIC [1] of 3.5 µg/mL (≈ 7.22 µM) and an MIC [2] of 220 µg/mL (≈ 454 µM).

With `N[C@@H](Cc1c[nH]c2ccccc12)C(=O)O` [色氨酸] the “bacterial uptake of antibiotic” value [3] was “能够提升细菌对于抗生素的吸收,并呈现剂量依赖性”, the “intracellular reactive oxygen species level” value [4] was “能够提高胞内活性氧的水平” and the “increase of bactericidal effect versus group without tryptophan” value ([5]; 5 mM tryptophan with gentamicin 3 mg/L and MIC 4 mg/L, 24 h, logarithmic phase) was 100 fold. For the same compound, the “increase of bactericidal effect” value ([5]; 5 mM tryptophan with kanamycin 1.5 mg/L to MIC 3.5 mg/L, 24 h, logarithmic phase) was 10-100 fold, the “increase of bactericidal efficiency” value ([5]; stationary phase MG1655, 5 mM tryptophan with gentamicin 60 mg/L or kanamycin 40 mg/L, 1 h per figure legend, 24 h per example) was ~10 fold and the “reduction of generation of drug-tolerant bacteria” value [6] was 10-1000 fold. The “bactericidal efficiency against drug-tolerant bacteria” value [7] was 80-90%.
